From paper PMC6162302, “A modified serine cycle in Escherichia coli coverts methanol and CO2 to two-carbon compounds” (Nature Communications, 2018) come the findings set out here.

The assay addresses T1, Medh(CT4–1), variant of Mdh2 (Cupriavidus necator, UniProt F8GNE5).
T1 construct: engineered variant CT4-1 of Mdh2, N-terminal His-tag, expressed in E. coli BL21(DE3), His-Spin column purified
T1 sequence (F8GNE5 1-390): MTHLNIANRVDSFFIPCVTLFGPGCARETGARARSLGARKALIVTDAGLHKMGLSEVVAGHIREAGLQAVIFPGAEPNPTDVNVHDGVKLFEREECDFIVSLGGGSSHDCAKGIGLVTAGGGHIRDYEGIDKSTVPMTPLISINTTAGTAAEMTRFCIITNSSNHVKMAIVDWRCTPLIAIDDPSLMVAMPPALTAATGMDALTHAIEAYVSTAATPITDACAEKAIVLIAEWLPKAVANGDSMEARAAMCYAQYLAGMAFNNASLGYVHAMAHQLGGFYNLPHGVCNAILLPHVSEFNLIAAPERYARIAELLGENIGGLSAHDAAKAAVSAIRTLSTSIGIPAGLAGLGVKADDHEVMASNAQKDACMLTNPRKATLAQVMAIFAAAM
The experiment in a line: NADH formation at […] nm. It counts as biochemical. The settings on record: 500 mM methanol, 5 mM MgCl2, 100 mM NaHCO3 pH 9.5, 37 °C.

As to `NC(=O)c1ccc[n+]([C@@H]2O[C@H](COP(=O)(O)OP(=O)(O)OC[C@H]3O[C@@H](n4cnc5c(N)ncnc54)[C@H](O)[C@@H]3O)[C@@H](O)[C@H]2O)c1` [NAD], the “NADH formation at 340 nm” value is on record as “oxidation of methanol to formaldehyde with the formation of NADH”.
